Experimental findings from patent US9682141B2, “Combination of kinase inhibitors and uses thereof” (INTELLIKINE LLC, priority 2011, dated 2017) are described below.

Holding throughout (assay type): biochemical
One assay addresses PI3K β (Homo sapiens (Human), UniProt P42338). Put plainly: PI 3-Kinase (human) HTRF assay, p110β/p85α. (In general: In TR-FRET formats the signal depends on donor and acceptor labels being close together.)
The target of another assay is PI3K γ (Homo sapiens (Human), UniProt P48736). Put plainly: PI 3-Kinase (human) HTRF assay, p110γ. As to conditions: read-out: PI3K γ IC50.
In a further assay the target is PI3K δ (Homo sapiens (Human), UniProt O00329). Put plainly: PI 3-Kinase (human) HTRF assay, p110δ/p85α.
A further assay deals with PI3K α (Homo sapiens (Human), UniProt P42336). Put plainly: PI 3-Kinase (human) HTRF assay, p110α/p85α.
Chain of PI3K α (P42336 whole entry): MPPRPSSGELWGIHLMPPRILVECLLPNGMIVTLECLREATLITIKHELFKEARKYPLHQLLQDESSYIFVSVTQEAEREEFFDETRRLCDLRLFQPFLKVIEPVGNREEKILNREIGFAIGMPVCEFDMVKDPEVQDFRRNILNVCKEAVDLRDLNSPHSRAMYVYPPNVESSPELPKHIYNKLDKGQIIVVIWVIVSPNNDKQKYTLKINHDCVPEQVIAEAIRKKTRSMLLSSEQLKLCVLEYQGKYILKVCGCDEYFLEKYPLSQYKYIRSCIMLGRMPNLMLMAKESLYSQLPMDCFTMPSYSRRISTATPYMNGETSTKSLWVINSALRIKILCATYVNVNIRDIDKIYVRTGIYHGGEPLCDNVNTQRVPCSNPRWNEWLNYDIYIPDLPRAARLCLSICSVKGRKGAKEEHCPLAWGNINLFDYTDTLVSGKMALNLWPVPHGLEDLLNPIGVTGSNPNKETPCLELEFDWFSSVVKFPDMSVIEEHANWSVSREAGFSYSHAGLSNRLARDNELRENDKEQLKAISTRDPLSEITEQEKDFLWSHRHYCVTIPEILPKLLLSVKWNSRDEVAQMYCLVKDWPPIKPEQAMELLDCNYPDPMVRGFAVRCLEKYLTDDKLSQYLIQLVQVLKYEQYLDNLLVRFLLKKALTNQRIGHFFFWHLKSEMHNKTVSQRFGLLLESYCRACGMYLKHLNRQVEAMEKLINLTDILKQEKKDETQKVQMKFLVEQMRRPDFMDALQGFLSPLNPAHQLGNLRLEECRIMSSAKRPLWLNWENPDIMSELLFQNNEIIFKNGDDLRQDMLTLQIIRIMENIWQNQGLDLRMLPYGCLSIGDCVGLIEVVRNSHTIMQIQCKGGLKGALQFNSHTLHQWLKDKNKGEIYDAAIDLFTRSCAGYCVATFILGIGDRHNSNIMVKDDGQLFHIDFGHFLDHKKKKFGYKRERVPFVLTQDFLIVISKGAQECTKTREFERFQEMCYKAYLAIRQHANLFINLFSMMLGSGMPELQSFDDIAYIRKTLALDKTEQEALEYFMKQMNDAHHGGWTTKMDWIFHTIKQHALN
Chain of PI3K α (P27986 whole entry partner): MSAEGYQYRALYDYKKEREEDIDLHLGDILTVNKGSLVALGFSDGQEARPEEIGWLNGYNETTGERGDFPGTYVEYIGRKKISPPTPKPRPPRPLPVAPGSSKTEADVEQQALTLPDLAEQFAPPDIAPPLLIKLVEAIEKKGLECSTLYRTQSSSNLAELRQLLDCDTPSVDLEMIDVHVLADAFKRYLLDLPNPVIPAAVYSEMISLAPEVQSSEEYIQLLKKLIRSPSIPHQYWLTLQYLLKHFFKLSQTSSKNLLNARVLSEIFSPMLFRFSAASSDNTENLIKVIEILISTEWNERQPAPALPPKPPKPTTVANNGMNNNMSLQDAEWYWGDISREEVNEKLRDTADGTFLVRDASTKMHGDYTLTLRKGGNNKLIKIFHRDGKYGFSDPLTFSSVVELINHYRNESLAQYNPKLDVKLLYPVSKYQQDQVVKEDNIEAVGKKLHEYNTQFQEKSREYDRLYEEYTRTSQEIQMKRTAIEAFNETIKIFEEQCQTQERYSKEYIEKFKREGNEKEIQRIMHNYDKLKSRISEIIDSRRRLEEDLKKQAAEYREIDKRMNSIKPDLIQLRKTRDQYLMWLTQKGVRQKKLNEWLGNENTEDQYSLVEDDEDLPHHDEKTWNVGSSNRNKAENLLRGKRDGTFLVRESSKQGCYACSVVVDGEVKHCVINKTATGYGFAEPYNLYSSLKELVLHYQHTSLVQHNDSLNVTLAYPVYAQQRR

Chain of PI3K γ (P48736 whole entry): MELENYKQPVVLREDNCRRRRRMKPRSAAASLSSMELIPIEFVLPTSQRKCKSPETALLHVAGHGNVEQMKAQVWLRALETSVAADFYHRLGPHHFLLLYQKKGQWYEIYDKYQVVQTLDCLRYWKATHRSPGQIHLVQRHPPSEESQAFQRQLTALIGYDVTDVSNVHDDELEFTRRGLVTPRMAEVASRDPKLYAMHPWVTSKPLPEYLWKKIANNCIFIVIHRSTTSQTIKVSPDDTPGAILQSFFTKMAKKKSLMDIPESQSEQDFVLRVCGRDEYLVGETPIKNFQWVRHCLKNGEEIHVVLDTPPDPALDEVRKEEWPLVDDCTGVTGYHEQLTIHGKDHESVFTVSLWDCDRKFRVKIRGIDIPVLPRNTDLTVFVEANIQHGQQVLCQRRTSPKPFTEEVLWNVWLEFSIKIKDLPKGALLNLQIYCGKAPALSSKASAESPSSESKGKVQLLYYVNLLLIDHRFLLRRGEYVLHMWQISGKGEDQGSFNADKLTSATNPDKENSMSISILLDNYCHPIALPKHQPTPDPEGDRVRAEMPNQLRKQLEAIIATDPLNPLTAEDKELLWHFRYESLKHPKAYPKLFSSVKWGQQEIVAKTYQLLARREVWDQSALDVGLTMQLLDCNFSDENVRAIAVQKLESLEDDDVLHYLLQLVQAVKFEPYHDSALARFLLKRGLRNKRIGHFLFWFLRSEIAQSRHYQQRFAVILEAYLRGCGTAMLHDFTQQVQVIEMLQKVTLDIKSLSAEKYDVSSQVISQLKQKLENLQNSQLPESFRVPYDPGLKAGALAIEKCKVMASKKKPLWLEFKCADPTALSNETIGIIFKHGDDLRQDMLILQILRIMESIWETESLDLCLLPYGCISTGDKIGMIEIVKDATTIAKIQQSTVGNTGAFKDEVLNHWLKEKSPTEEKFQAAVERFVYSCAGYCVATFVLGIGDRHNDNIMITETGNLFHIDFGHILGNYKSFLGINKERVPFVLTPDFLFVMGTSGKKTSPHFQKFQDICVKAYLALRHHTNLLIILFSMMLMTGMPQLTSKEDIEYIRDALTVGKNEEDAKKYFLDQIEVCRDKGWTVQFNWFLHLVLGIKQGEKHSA
Chain of PI3K δ (O00329 whole entry): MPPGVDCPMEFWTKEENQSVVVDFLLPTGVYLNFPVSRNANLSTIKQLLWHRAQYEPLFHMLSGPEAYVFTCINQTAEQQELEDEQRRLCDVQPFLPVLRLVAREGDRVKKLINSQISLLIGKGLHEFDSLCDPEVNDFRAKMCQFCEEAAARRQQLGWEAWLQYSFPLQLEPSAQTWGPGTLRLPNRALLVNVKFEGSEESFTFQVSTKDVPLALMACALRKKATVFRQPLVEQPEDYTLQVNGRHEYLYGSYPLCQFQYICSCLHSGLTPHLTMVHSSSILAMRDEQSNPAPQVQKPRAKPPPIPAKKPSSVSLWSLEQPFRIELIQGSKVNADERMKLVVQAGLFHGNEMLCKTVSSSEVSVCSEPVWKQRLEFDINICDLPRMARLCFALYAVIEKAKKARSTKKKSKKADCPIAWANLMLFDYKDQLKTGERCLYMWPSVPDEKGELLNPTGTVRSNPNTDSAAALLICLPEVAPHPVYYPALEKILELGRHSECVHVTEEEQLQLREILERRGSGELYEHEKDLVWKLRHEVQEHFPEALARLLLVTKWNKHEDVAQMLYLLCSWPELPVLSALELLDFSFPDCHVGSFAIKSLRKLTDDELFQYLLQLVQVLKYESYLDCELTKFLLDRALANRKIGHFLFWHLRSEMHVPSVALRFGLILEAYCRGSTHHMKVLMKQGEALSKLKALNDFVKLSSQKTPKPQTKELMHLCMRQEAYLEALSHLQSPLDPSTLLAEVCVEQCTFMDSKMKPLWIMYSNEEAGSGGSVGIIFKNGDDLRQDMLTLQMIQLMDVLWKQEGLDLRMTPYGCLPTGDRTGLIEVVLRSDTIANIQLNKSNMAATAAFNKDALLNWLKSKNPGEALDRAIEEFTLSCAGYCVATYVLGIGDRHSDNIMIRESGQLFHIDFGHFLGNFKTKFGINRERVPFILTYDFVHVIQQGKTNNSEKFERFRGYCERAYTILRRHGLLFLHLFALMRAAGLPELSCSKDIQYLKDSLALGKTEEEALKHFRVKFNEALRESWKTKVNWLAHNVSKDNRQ
Chain of PI3K δ (P27986 whole entry partner): as the sequence (P27986 whole entry partner) above
Chain of PI3K β (P42338 whole entry): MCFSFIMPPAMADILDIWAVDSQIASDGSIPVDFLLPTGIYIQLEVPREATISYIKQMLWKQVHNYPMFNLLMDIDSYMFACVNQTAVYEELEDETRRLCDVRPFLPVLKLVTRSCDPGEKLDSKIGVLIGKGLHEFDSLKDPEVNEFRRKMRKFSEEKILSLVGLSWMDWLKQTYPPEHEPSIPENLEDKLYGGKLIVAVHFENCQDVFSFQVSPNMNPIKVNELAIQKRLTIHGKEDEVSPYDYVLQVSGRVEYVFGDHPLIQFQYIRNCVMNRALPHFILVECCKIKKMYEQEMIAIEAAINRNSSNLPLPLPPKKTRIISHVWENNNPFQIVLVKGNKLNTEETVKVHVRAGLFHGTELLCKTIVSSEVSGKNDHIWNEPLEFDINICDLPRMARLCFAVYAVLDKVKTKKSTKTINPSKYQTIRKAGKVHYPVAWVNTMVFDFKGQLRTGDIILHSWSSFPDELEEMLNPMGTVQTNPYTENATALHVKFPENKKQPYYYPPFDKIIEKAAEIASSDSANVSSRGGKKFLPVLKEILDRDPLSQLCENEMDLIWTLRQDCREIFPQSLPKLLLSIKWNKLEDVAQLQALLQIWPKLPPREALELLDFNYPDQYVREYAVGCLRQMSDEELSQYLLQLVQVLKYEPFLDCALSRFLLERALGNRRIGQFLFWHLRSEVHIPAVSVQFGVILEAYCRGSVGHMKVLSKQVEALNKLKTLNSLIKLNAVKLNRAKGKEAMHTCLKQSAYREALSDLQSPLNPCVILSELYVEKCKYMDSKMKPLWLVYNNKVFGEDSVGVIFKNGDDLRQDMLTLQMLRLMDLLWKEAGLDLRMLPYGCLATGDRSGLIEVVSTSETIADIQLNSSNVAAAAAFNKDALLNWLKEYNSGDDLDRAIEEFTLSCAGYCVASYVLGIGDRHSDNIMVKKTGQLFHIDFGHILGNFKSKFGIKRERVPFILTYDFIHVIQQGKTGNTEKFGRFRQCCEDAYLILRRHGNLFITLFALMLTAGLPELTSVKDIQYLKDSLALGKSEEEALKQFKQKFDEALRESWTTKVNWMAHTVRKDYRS
Chain of PI3K β (P27986 whole entry partner): as the sequence (P27986 whole entry partner) above

Consider `Nc1nc2cc(-c3ccc4ncc(-c5ccnc(N6CCOCC6)c5)nc4c3)ccc2o1`, for which the half-inhibitory concentration (IC50) on PI3K β was above 10000 nM; on PI3K γ, above 10000 nM; at PI3K δ, above 10000 nM; on PI3K α, below 1000 nM.
As for `Nc1nc2cc(-c3ccc4ncc(-c5cccnc5)n4n3)ccc2o1`, the IC50 against PI3K β, on PI3K γ, against PI3K δ and against PI3K α was below 100 nM each time.
As for `CS(=O)(=O)N1CCC(Nc2cnc3ccc(-c4ccc5oc(N)nc5c4)cc3n2)CC1`, the IC50 at PI3K β is below 10000 nM; at PI3K γ, below 100 nM; against PI3K δ, below 100 nM; on PI3K α it was below 100 nM.
In the case of `Nc1nc2cc(-c3c[nH]c4nccc(-c5ccncc5)c34)ccc2o1` [Compound 25], the IC50 on PI3K β was above 10000 nM; on PI3K γ, below 10000 nM; on PI3K δ it was above 10000 nM; against PI3K α, below 10000 nM.
For `CN1CCC(N(C)c2cnc3ccc(-c4ccc5oc(N)nc5c4)cc3n2)CC1`, the IC50 against PI3K β was below 10000 nM; at PI3K γ it was below 10000 nM; against PI3K δ, below 1000 nM; at PI3K α, below 100 nM.
Regarding `Nc1nc2cc(-c3ccc4ncc(N5CCN(CC6CC6)CC5)nc4c3)ccc2o1`, the IC50 on PI3K β was below 100 nM; on PI3K γ it was below 1000 nM; on PI3K δ, below 1000 nM; against PI3K α, below 100 nM.
`CC1CN(c2cnc3ccc(-c4ccc5oc(N)nc5c4)cc3n2)CC(C)N1` (centres unmarked): the IC50 against PI3K β, on PI3K γ, at PI3K δ and against PI3K α was below 1000 nM each time.
As for `CN1CCCN(C(=O)c2cnc3ccc(-c4ccc5oc(N)nc5c4)cn23)CC1`, the IC50 was below 10000 nM against PI3K β, above 10000 nM on PI3K γ, above 10000 nM at PI3K δ and below 1000 nM against PI3K α.
Turning to `Nc1nc2cc(-c3ccc4ncc(NC5CCOCC5)nc4c3)ccc2o1`, the 50% inhibitory concentration (IC50) was below 10000 nM at PI3K β, below 100 nM at PI3K γ, below 1000 nM on PI3K δ and below 100 nM on PI3K α.
Consider `Nc1nc2cc(-c3ccc4ncc(N5CCOCC5)n4c3)ccc2o1` [Compound 53], for which the IC50 was above 10000 nM against PI3K β, above 10000 nM at PI3K γ, above 10000 nM on PI3K δ and below 10000 nM on PI3K α.
Consider `Nc1nsc2cc(-c3ccc4nccc(-c5ccncc5)c4c3)ccc12` [Compound 13], for which the IC50 was below 1000 nM at PI3K β, below 1000 nM at PI3K γ, below 1000 nM on PI3K δ and below 100 nM against PI3K α.
Take `CCN1CCN(c2cnc3ccc(-c4ccc5oc(N)nc5c4)cc3n2)CC1`: the IC50 is below 100 nM against PI3K β, below 1000 nM at PI3K γ, below 10000 nM against PI3K δ and below 100 nM against PI3K α.
For the compound `CS(=O)(=O)N1CCC(Nc2ncnc3ccc(-c4ccc5oc(N)nc5c4)cc23)CC1`, the IC50 at PI3K β is below 1000 nM; on PI3K γ, below 100 nM; against PI3K δ, below 100 nM; against PI3K α, below 100 nM.
For the compound `Nc1nc2cc(-c3ccc4ncc(N5CC(N6C7CCC6COC7)C5)nc4n3)ccc2o1`, the half-inhibitory concentration (IC50) is above 10000 nM against PI3K β, above 10000 nM at PI3K γ, above 10000 nM at PI3K δ and below 10000 nM against PI3K α.
As to `Nc1nc2cc(-c3ccc4ncc(N5CCS(=O)(=O)CC5)nc4c3)ccc2o1`, the IC50 against PI3K β was above 10000 nM; at PI3K γ, below 100 nM; at PI3K δ, above 10000 nM; on PI3K α, below 100 nM.
As to `Cn1cc(-c2cnc3ccc(-c4ccc5oc(N)nc5c4)cc3n2)cn1`, the IC50 was below 1000 nM against PI3K β, below 100 nM on PI3K γ, below 10000 nM against PI3K δ and below 100 nM on PI3K α.
Turning to `C[C@@H]1COCCN1C1CN(c2cnc3ccc(-c4ccc5oc(N)nc5c4)nc3n2)C1`, the IC50 against PI3K β was above 10000 nM; at PI3K γ it was below 10000 nM; at PI3K δ it was above 10000 nM; against PI3K α, below 10000 nM.
On to `Nc1nc2ccc(-c3ccc4ncc(N5CCOCC5)nc4c3)cc2s1`, for which the IC50 on PI3K β is above 10000 nM; on PI3K γ, below 1000 nM; against PI3K δ it was above 10000 nM; against PI3K α, below 100 nM.
On to `CC(C)(C)N1CCN(C(=O)c2cnc3ccc(-c4ccc5oc(N)nc5c4)cn23)CC1`, for which the IC50 against PI3K β was below 10000 nM; at PI3K γ, below 10000 nM; at PI3K δ, below 10000 nM; against PI3K α, below 100 nM.
For `Nc1nc2cc(-c3ccc4ncn(CCO)c(=O)c4c3)ccc2o1`, the half-inhibitory concentration (IC50) at PI3K β is below 10000 nM; at PI3K γ it was below 1000 nM; against PI3K δ, above 10000 nM; at PI3K α, below 100 nM.
Take `Nc1nc2ccc(-c3ccc4ncc(C(=O)N5CCOCC5)n4c3)cc2s1`: the IC50 on PI3K β is above 10000 nM; on PI3K γ, below 1000 nM; against PI3K δ, below 10000 nM; against PI3K α, below 1000 nM.
`CN1CCN(c2cnc3ccc(-c4ccc5oc(N)nc5c4)nc3n2)CC1`: the half-maximal inhibitory concentration (IC50) at PI3K β was below 1000 nM; at PI3K γ it was below 10000 nM; at PI3K δ it was below 10000 nM; against PI3K α it was below 1000 nM.
Consider `Nc1nc2cc(-c3ccc4ncc(N5CCOCC5)nc4n3)ccc2o1`, for which the IC50 was below 1000 nM on PI3K β, below 100 nM on PI3K γ, above 10000 nM at PI3K δ and below 100 nM at PI3K α.
On to `CC(=O)Nc1nc2ccc(-c3nc(N4CCOCC4)c4sc(CN5CCN(S(C)(=O)=O)CC5)cc4n3)cc2s1`, for which the 50% inhibitory concentration (IC50) on PI3K β, on PI3K γ, at PI3K δ and against PI3K α was above 10000 nM in each case.
Regarding `CN1CCC(N(C)C(=O)c2cnc3ccc(-c4ccc5oc(N)nc5c4)cn23)CC1`, the IC50 is below 10000 nM at PI3K β, above 10000 nM at PI3K γ, below 10000 nM at PI3K δ and below 1000 nM at PI3K α.
Take `C[C@@H]1CN(C(=O)c2cnc3ccc(-c4ccc5oc(N)nc5c4)cn23)C[C@H](C)O1`: the IC50 on PI3K β is above 10000 nM; on PI3K γ it was below 10000 nM; against PI3K δ it was above 10000 nM; against PI3K α, below 10000 nM.
Regarding `Nc1nc2cc(-c3cn4c(-c5cn[nH]c5)cnc4cn3)ccc2o1`, the IC50 against PI3K β was below 10000 nM; at PI3K γ, below 1000 nM; at PI3K δ it was below 10000 nM; against PI3K α, below 1000 nM.
As for `Nc1nc2cc(-c3ccc4ncc(N5CCC(O)CC5)nc4n3)ccc2o1`, the IC50 is below 10000 nM against PI3K β, below 100 nM on PI3K γ, above 10000 nM at PI3K δ and below 100 nM on PI3K α.
Regarding `Nc1nc2cc(-c3ccc4ncc(-c5cn[nH]c5)nc4c3)ccc2o1`, the IC50 was below 1000 nM at PI3K β, below 100 nM on PI3K γ, below 1000 nM at PI3K δ and below 100 nM on PI3K α.
As to `Cc1nc2ccc(-c3ccc4oc(N)nc4c3)cn2c1C(=O)N1CCN(C)CC1`, the concentration for half-maximal inhibition (IC50) at PI3K β, on PI3K γ, at PI3K δ and on PI3K α was above 10000 nM in each case.
As for `Nc1nc2cc(-c3ccc4ncc(C(=O)NC5CCOCC5)n4c3)ccc2o1`, the IC50 was below 10000 nM at PI3K β, below 100 nM on PI3K γ, below 100 nM against PI3K δ and below 100 nM against PI3K α.
With `CN1CCC(Nc2cnc3ccc(-c4ccc5oc(N)nc5c4)cc3n2)CC1`, the IC50 at PI3K β is below 1000 nM; on PI3K γ, below 1000 nM; against PI3K δ, below 100 nM; against PI3K α, below 100 nM.

As usually defined, the IC50 is the concentration needed to halve the response being measured.
